Measured values: patent publication US12121521B2, “Uses of salt-inducible kinase (SIK) inhibitors for treating osteoporosis” (The General Hospital Corporation, priority 2016, dated 2024)

Experiments:
Format in all cases: cell-based, mouse
[1] = test system: Ocy454 cells; experiment: Immunoblotting of Ocy454 cell lysates (HDAC4/5, CRTC2, SIK2 phosphorylation and localisation); details: 10 uM, 90 minutes, compared to DMSO control; FIGS. 17 to 19
Procedure: The Ocy454 osteocyte cell line was treated for 90 minutes with the indicated compound at 10 uM dose (FIG. 17). Phospho-HDAC4 S246 levels were monitored by immunoblotting (top band) compared to DMSO control.
For all experiments, a single cell subclone of Ocy454 cells (17, 18) was used. Cells were passages in alpha-MEM supplemented with 10% heat-inactivated fetal bovine serum and 1% antibiotics (penicillin/streptomycin, Fungizone) at 33° C. with 5% CO2. Cells were plated at 50,000 cells/ml and allowed to reach confluency at 33° C. (typically in 2-3 days). At this point, cells were transferred to 37° C. for subsequent analysis. For immunoblotting, cells were always analyzed after culture at 37° C. for 7 days. For gene expression analysis, cells were analyzed after culture at 37° C. for 14 days. Mycoplasma contamination was ruled out by PCR. Cells were routinely assayed for SOST expression at 37° C. and examined for osteocytic morphology. […]

[2] = test system: Ocy454 cells; experiment: Gene expression in Ocy454 cells by RT-qPCR; details: 0.5 μM, 3.5 hours; FIG. 21
Procedure: In FIG. 21, Ocy454 cells (osteocyte cell line, also known at 6-9 cells) were cultured at 37° C. for 2 weeks to permit osteocyte differentiation. The cells were then treated with the indicated compound (0.5 μM) for 3.5 hours, and gene expression was analyzed by RT-qPCR. SOST expression was reduced by the indicated compounds. RANKL expression was increased by the indicated compounds. […] Therefore, these changes in gene expression may be due to on-target effects of the indicated compound.
For all experiments, a single cell subclone of Ocy454 cells (17, 18) was used. Cells were passages in alpha-MEM supplemented with 10% heat-inactivated fetal bovine serum and 1% antibiotics (penicillin/streptomycin, Fungizone) at 33° C. with 5% CO2. Cells were plated at 50,000 cells/ml and allowed to reach confluency at 33° C. (typically in 2-3 days). At this point, cells were transferred to 37° C. for subsequent analysis. For immunoblotting, cells were always analyzed after culture at 37° C. for 7 days. For gene expression analysis, cells were analyzed after culture at 37° C. for 14 days. Mycoplasma contamination was ruled out by PCR. Cells were routinely assayed for SOST expression at 37° C. and examined for osteocytic morphology.
Total RNA was extracted from cultured cells using RNeasy (Qiagen, Venlo, Netherlands) following the manufacturer's instructions. For long bone RNA isolation, mice were sacrificed and both femurs were rapidly dissected on ice. Soft tissue was removed and epiphyses cut. Bone marrow cells were then removed by serial flushing with ice-cold PBS. TRIzol (Life Technologies) was added and sampled were frozen at −80C and then homogenized. RNA was then extracted per the manufacturer's instructions, and further purified on RNeasy microcolumns prior to cDNA synthesis. RNA with A260/280 ratio <1.7 was not used for downstream analysis. For cDNA synthesis, 1 μg RNA was used in synthesis reactions according to the instructions of the manufacturer (Primescript RT, Takara). SYBR Green-based qPCR detection was performed using FastStart Universal SYBR Green (Roche, Basel, Switzerland) on a StepOne Plus (Applied Biosystems, Carlsbad, CA) thermocycler.

[3] = test system: Ocy454 cells; experiment: cAMP radioimmunoassay; details: 20 minutes; FIG. 14B
Procedure: Cells, in 96 well plates, were treated with indicated ligands for 20 minutes at room temperature in the presence of the phosphodiesterase inhibitor 3-isobutyl-1-methylxanthine (IBMX, Sigma I5879, 2 mM). The medium was then removed and cells were lysed in 50 mM HCl and transferred to −80C. Thawed lysates were diluted 1:5 with dH2O, and an 10 μl aliquot was assessed for cAMP content by radioimmunoassay using ^125I-cAMP analog as a tracer and unlabeled cAMP to generate a standard curve.

[4] = test system: Ocy454 cells; experiment: Immunoblotting of Ocy454 cell lysates (HDAC4/5, CRTC2, SIK2 phosphorylation and localisation)
[5] = test system: Ocy454 cells; experiment: Gene expression in Ocy454 cells by RT-qPCR; details: FIG. 5E

Row | SMILES | Phospho-HDAC4 S246 levels [1] | RANKL expression [2] | SOST expression [2] | cAMP levels [3] | dose of optimal efficacy at the level of HDAC4/5 dephosphorylation ([4]; 60 minutes, FIG. 5C) [µM] | HDAC4/5 phosphorylation ([4]; FIGS. 5B and 5C) | dose of optimal efficacy at the level of gene expression ([5]; 4 hours) [µM] | RANKL expression [5] | SOST expression [5] | block of PTH-mediated decreased HDAC4/5 phosphorylation or SOST suppression ([4]; okadaic acid 300 nM plus PTH, FIGS. 13B and 13C)
1 | COc1ccc(N2C(=O)N(c3c(C)cccc3C)Cc3cnc(Nc4ccc(N5CCN(C)CC5)c(OC)c4)nc32)c(OC)c1 [YKL-04-114] | showed the most clear results across multiple replicates | most active in these experiments at reducing SOST and increasing RANKL | most active in these experiments at reducing SOST | without increasing cAMP levels | ~1 | rapid, dose-dependent decreases in HDAC4/5 phosphorylation | ~0.5 | RANKL up-regulation | rapid and potent SOST suppression | –
2 | C=C1[C@@H](O)[C@@H]2O[C@]3(CC[C@H](/C=C/[C@@H](C)[C@@H]4CC(C)=C[C@@]5(O[C@H](C[C@@](C)(O)C(=O)O)CC[C@H]5O)O4)O3)CC[C@H]2O[C@@H]1[C@@H](O)C[C@H](C)[C@H]1O[C@@]2(CCCCO2)CC[C@H]1C [okadaic acid, reference compound] | – | – | – | – | – | – | – | – | – | did not block PTH-mediated decreased HDAC4/5 phosphorylation or SOST suppression
